Results: the NIST ThermoML archive (doi:10.1021/je400055v)
± gives the expanded uncertainty stated by the source.

Assay: xn = mol fraction of the nth substance listed
Details: Liquid, Vibrating tube method

## CCCCCCCCCCC [undecane] + CCCCCCC
313.12 K, 2001 kPa, x2 = 0.5063
  mass density: 703.7 ± 0.3 kg/m3
313.12 K, 3000 kPa, x2 = 0.5063
  mass density: 704.6 ± 0.3 kg/m3
313.12 K, 4000 kPa, x2 = 0.5063
  mass density: 705.6 ± 0.3 kg/m3
313.12 K, 5000 kPa, x2 = 0.5063
  mass density: 706.5 ± 0.3 kg/m3
313.12 K, 6000 kPa, x2 = 0.5063
  mass density: 707.4 ± 0.3 kg/m3
313.12 K, 7000 kPa, x2 = 0.5063
  mass density: 708.2 ± 0.3 kg/m3
313.12 K, 8001 kPa, x2 = 0.5063
  mass density: 709.1 ± 0.3 kg/m3
313.12 K, 9000 kPa, x2 = 0.5063
  mass density: 709.9 ± 0.3 kg/m3
313.12 K, 10000 kPa, x2 = 0.5063
  mass density: 710.8 ± 0.3 kg/m3
313.12 K, 11000 kPa, x2 = 0.5063
  mass density: 711.6 ± 0.3 kg/m3
313.12 K, 12000 kPa, x2 = 0.5063
  mass density: 712.4 ± 0.3 kg/m3
313.12 K, 13000 kPa, x2 = 0.5063
  mass density: 713.2 ± 0.3 kg/m3
313.12 K, 14000 kPa, x2 = 0.5063
  mass density: 714 ± 0.3 kg/m3
313.12 K, 15000 kPa, x2 = 0.5063
  mass density: 714.8 ± 0.4 kg/m3
313.12 K, 16000 kPa, x2 = 0.5063
  mass density: 715.6 ± 0.4 kg/m3
313.12 K, 17001 kPa, x2 = 0.5063
  mass density: 716.3 ± 0.4 kg/m3
313.12 K, 18000 kPa, x2 = 0.5063
  mass density: 717.1 ± 0.4 kg/m3
313.12 K, 19000 kPa, x2 = 0.5063
  mass density: 717.8 ± 0.4 kg/m3
313.12 K, 20000 kPa, x2 = 0.5063
  mass density: 718.5 ± 0.4 kg/m3
313.12 K, 21001 kPa, x2 = 0.5063
  mass density: 719.2 ± 0.4 kg/m3
313.12 K, 22050 kPa, x2 = 0.5063
  mass density: 720 ± 0.4 kg/m3
313.12 K, 23000 kPa, x2 = 0.5063
  mass density: 720.6 ± 0.4 kg/m3
313.12 K, 24000 kPa, x2 = 0.5063
  mass density: 721.3 ± 0.4 kg/m3
313.12 K, 25000 kPa, x2 = 0.5063
  mass density: 722 ± 0.4 kg/m3
313.14 K, 1001 kPa, x2 = 0.9511
  mass density: 671.7 ± 0.3 kg/m3
313.14 K, 2000 kPa, x2 = 0.9511
  mass density: 672.8 ± 0.3 kg/m3
313.14 K, 3000 kPa, x2 = 0.9511
  mass density: 673.9 ± 0.3 kg/m3
313.14 K, 4000 kPa, x2 = 0.9511
  mass density: 674.9 ± 0.3 kg/m3
313.14 K, 5000 kPa, x2 = 0.9511
  mass density: 676 ± 0.3 kg/m3
313.14 K, 6000 kPa, x2 = 0.9511
  mass density: 677 ± 0.3 kg/m3
313.14 K, 7000 kPa, x2 = 0.9511
  mass density: 678 ± 0.3 kg/m3
313.14 K, 8000 kPa, x2 = 0.9511
  mass density: 679 ± 0.3 kg/m3
313.14 K, 9000 kPa, x2 = 0.9511
  mass density: 680 ± 0.3 kg/m3
313.14 K, 10000 kPa, x2 = 0.9511
  mass density: 680.9 ± 0.3 kg/m3
313.14 K, 11000 kPa, x2 = 0.9511
  mass density: 681.8 ± 0.3 kg/m3
313.14 K, 12000 kPa, x2 = 0.9511
  mass density: 682.7 ± 0.4 kg/m3
313.14 K, 13000 kPa, x2 = 0.9511
  mass density: 683.6 ± 0.4 kg/m3
313.14 K, 14001 kPa, x2 = 0.9511
  mass density: 684.5 ± 0.4 kg/m3
313.14 K, 15001 kPa, x2 = 0.9511
  mass density: 685.4 ± 0.4 kg/m3
313.14 K, 16000 kPa, x2 = 0.9511
  mass density: 686.3 ± 0.4 kg/m3
313.14 K, 17001 kPa, x2 = 0.9511
  mass density: 687.1 ± 0.4 kg/m3
313.14 K, 18001 kPa, x2 = 0.9511
  mass density: 687.9 ± 0.4 kg/m3
313.14 K, 19000 kPa, x2 = 0.9511
  mass density: 688.7 ± 0.4 kg/m3
313.14 K, 20000 kPa, x2 = 0.9511
  mass density: 689.5 ± 0.4 kg/m3
313.14 K, 21001 kPa, x2 = 0.9511
  mass density: 690.3 ± 0.4 kg/m3
313.14 K, 22000 kPa, x2 = 0.9511
  mass density: 691.1 ± 0.4 kg/m3
313.14 K, 23001 kPa, x2 = 0.9511
  mass density: 691.9 ± 0.4 kg/m3
313.14 K, 24000 kPa, x2 = 0.9511
  mass density: 692.6 ± 0.5 kg/m3
313.14 K, 25000 kPa, x2 = 0.9511
  mass density: 693.3 ± 0.5 kg/m3
313.15 K, 1000 kPa, x2 = 0.7482
  mass density: 687.4 ± 0.3 kg/m3
313.15 K, 1001 kPa, x2 = 0.05
  mass density: 724.3 ± 0.3 kg/m3
313.15 K, 2000 kPa, x2 = 0.7482
  mass density: 688.4 ± 0.3 kg/m3
313.15 K, 2001 kPa, x2 = 0.05
  mass density: 725.1 ± 0.3 kg/m3
313.15 K, 3000 kPa, x2 = 0.05
  mass density: 726 ± 0.3 kg/m3
313.15 K, 3000 kPa, x2 = 0.7482
  mass density: 689.4 ± 0.3 kg/m3
313.15 K, 4000 kPa, x2 = 0.05
  mass density: 726.8 ± 0.3 kg/m3
313.15 K, 4000 kPa, x2 = 0.7482
  mass density: 690.4 ± 0.3 kg/m3
313.15 K, 5000 kPa, x2 = 0.05
  mass density: 727.6 ± 0.3 kg/m3
313.15 K, 5000 kPa, x2 = 0.7482
  mass density: 691.3 ± 0.3 kg/m3
313.15 K, 6000 kPa, x2 = 0.05
  mass density: 728.4 ± 0.3 kg/m3
313.15 K, 6000 kPa, x2 = 0.7482
  mass density: 692.3 ± 0.3 kg/m3
313.15 K, 7000 kPa, x2 = 0.05
  mass density: 729.2 ± 0.3 kg/m3
313.15 K, 7000 kPa, x2 = 0.7482
  mass density: 693.2 ± 0.3 kg/m3
313.15 K, 8000 kPa, x2 = 0.7482
  mass density: 694.1 ± 0.3 kg/m3
313.15 K, 8001 kPa, x2 = 0.05
  mass density: 730 ± 0.3 kg/m3
313.15 K, 9000 kPa, x2 = 0.05
  mass density: 730.8 ± 0.3 kg/m3
313.15 K, 9000 kPa, x2 = 0.7482
  mass density: 695 ± 0.3 kg/m3
313.15 K, 10000 kPa, x2 = 0.05
  mass density: 731.6 ± 0.3 kg/m3
313.15 K, 10000 kPa, x2 = 0.7482
  mass density: 695.9 ± 0.3 kg/m3
313.15 K, 11000 kPa, x2 = 0.05
  mass density: 732.3 ± 0.3 kg/m3
313.15 K, 11000 kPa, x2 = 0.7482
  mass density: 696.8 ± 0.3 kg/m3
313.15 K, 12000 kPa, x2 = 0.05
  mass density: 733.1 ± 0.3 kg/m3
313.15 K, 12000 kPa, x2 = 0.7482
  mass density: 697.6 ± 0.3 kg/m3
313.15 K, 13000 kPa, x2 = 0.05
  mass density: 733.8 ± 0.3 kg/m3
313.15 K, 13000 kPa, x2 = 0.7482
  mass density: 698.5 ± 0.4 kg/m3
313.15 K, 14000 kPa, x2 = 0.05
  mass density: 734.5 ± 0.3 kg/m3
313.15 K, 14000 kPa, x2 = 0.7482
  mass density: 699.3 ± 0.4 kg/m3
313.15 K, 15000 kPa, x2 = 0.05
  mass density: 735.2 ± 0.3 kg/m3
313.15 K, 15000 kPa, x2 = 0.7482
  mass density: 700.1 ± 0.4 kg/m3
313.15 K, 16000 kPa, x2 = 0.05
  mass density: 735.9 ± 0.4 kg/m3
313.15 K, 16000 kPa, x2 = 0.7482
  mass density: 700.9 ± 0.4 kg/m3
313.15 K, 17000 kPa, x2 = 0.05
  mass density: 736.6 ± 0.4 kg/m3
313.15 K, 17000 kPa, x2 = 0.7482
  mass density: 701.7 ± 0.4 kg/m3
313.15 K, 18000 kPa, x2 = 0.05
  mass density: 737.3 ± 0.4 kg/m3
313.15 K, 18000 kPa, x2 = 0.7482
  mass density: 702.5 ± 0.4 kg/m3
313.15 K, 19000 kPa, x2 = 0.05
  mass density: 738 ± 0.4 kg/m3
313.15 K, 19000 kPa, x2 = 0.7482
  mass density: 703.3 ± 0.4 kg/m3
313.15 K, 20000 kPa, x2 = 0.05
  mass density: 738.7 ± 0.4 kg/m3
313.15 K, 20000 kPa, x2 = 0.7482
  mass density: 704 ± 0.4 kg/m3
313.15 K, 21000 kPa, x2 = 0.05
  mass density: 739.3 ± 0.4 kg/m3
313.15 K, 21000 kPa, x2 = 0.7482
  mass density: 704.8 ± 0.4 kg/m3
313.15 K, 22000 kPa, x2 = 0.7482
  mass density: 705.5 ± 0.4 kg/m3
313.15 K, 22001 kPa, x2 = 0.05
  mass density: 740 ± 0.4 kg/m3
